Here are results for two compounds from ChEMBL document CHEMBL3045439, “Isoforms of the heteropteran Nezara viridula ecdysone receptor: protein characterisation, RH5992 insecticide binding and homology modelling” (Pest Manag Sci, 2011).

pIC50, pKi: −log10 of the molar value.

Experiment [1] deals with T1, Ecdysone receptor (Drosophila melanogaster, UniProt P20153+P34021).
T1 sequence (P34021 whole entry): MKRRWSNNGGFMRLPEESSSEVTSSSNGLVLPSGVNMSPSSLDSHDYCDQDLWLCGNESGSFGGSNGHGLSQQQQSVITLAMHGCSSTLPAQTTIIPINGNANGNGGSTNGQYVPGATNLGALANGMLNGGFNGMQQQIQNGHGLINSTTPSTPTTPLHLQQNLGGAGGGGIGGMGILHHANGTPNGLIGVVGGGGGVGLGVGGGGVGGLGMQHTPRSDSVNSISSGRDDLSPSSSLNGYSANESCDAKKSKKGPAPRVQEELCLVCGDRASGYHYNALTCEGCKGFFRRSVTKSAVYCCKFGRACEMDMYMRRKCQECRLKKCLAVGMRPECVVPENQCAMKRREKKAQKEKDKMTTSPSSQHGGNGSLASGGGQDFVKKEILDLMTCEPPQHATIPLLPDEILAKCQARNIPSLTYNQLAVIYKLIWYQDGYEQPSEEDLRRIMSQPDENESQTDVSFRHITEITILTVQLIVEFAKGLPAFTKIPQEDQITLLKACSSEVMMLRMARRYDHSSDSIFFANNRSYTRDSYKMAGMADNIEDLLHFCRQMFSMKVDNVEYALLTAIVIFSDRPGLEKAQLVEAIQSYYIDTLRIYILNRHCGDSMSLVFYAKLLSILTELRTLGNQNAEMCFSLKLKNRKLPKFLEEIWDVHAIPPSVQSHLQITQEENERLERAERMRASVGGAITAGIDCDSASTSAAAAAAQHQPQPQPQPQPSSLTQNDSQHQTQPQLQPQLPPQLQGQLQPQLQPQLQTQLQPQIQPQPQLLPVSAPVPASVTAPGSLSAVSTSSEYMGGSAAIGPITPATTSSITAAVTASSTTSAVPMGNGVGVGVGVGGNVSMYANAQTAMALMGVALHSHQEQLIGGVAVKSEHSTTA
T1 sequence (P20153 whole entry): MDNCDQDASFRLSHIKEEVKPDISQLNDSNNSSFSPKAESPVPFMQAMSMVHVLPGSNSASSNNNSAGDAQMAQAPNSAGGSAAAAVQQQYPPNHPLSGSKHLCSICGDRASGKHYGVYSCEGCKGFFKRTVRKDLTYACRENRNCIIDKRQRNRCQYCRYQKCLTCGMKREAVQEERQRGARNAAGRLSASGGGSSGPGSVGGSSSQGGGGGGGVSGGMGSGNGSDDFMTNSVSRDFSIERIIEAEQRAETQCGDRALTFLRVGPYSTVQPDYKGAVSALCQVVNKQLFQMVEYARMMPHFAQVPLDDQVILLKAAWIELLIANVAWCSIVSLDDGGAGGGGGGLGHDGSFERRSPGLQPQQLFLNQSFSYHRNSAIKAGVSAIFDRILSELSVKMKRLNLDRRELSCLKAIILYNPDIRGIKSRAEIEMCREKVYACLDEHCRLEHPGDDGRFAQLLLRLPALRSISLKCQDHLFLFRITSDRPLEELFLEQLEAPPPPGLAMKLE
In words: Binding affinity to Drosophila melanogaster EcR. The class given is protein-complex assay.

Experiment [2] has as its target T2, Ecdysone receptor (Leptinotarsa decemlineata, UniProt Q4W6C8+Q4W6D0).
T2 sequence (Q4W6D0 whole entry): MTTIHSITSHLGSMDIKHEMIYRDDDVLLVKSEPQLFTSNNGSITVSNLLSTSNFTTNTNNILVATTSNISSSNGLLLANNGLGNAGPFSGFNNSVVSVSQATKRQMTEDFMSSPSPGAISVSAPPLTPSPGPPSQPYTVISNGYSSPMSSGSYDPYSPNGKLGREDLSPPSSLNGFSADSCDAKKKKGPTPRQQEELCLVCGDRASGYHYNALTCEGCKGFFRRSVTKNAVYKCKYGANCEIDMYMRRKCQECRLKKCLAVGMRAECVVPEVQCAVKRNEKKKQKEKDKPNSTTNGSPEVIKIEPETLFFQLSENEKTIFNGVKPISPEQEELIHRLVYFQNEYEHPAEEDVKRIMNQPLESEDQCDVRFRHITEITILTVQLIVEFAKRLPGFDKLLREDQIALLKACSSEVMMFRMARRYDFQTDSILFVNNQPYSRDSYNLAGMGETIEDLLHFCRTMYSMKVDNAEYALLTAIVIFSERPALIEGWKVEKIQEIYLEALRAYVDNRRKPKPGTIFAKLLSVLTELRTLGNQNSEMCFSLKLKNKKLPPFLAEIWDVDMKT
T2 sequence (Q4W6C8 whole entry): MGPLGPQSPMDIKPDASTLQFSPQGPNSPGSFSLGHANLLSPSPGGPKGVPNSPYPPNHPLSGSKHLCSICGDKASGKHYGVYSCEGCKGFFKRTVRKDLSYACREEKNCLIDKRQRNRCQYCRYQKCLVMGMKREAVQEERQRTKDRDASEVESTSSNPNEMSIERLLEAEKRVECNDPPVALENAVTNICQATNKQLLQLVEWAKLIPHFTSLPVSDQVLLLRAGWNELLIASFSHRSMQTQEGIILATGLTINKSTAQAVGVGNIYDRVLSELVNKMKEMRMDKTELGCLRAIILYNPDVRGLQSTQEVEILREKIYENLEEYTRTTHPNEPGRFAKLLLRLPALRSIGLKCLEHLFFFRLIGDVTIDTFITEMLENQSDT
Nature of the experiment: Binding affinity to Leptinotarsa decemlineata EcR. In kind it is protein-complex assay.

With `CC(C)(O)CC[C@@H](O)[C@](C)(O)[C@H]1CC[C@@]2(O)C3=CC(=O)[C@@H]4C[C@@H](O)[C@@H](O)C[C@]4(C)[C@H]3CC[C@]12C` [20-HYDROXYECDYSONE], the pIC50 – broadly, the negative decadic logarithm of the IC50, by convention in mol/L – at Ecdysone receptor [1] was 7.34; at Ecdysone receptor [2], 6.36.
Take `CCc1ccc(C(=O)NN(C(=O)c2cc(C)cc(C)c2)C(C)(C)C)cc1` [TEBUFENOZIDE]: the figures for the pKi on Ecdysone receptor [1] and on Ecdysone receptor [2] were 6.60 and 5.60, respectively.
